Laboratory results published in US12252472B1, “Barbituric acid derivatives, their preparation and use thereof as leukocyte transmigration inhibitors and for treating inflammatory diseases, autoimmune diseases and cancer” (BAR-ILAN UNIVERSITY, priority 2017, dated 2025).

Test system: C57BL/6J mice
Test: Acute dextran sodium sulfate (DSS) induced colitis model
Assay type: in vivo, mouse
Method: The colitis was inducted by adding 1.5% DSS to the drinking water of female C57BL/6J (7-8 weeks old) mice for 5 consecutive days (days 0-4) for all animals in the experimental groups. On day 5, DSS containing water was changed for regular drinking water and treatment was initiated. The working suspension of the compound of Formula 2 was administrated at 15 mg/kg by IV, IP or SC injections at q3w regimen (administered 3 times per week) and at 30 mg/kg by PO at qd regimen (once daily). Treatment continued for 10 days and thereafter mice were euthanized.
Determination of individual body weight of animals was made prior to each dosing and the administered volume was adjusted accordingly. Additional body weights throughout the entire experimental period were taken on a daily bases. The severity of colitis Disease Activity Index (DAI) score was monitored daily according to the criteria shown in Table 3 and calculated as a sum of the weight loss score, the diarrheal score and the hematochezia score. Disease activity index (DAI) based on the methods reported by Friedman et al. (PNAS, 2009) was used.
Mice from all groups were euthanized with isoflurane 24 hours post last dose administration. Colon was collected from each mouse, filled with 4% buffered formalin and colon length was measured. Large intestines were fixed, embedded in paraffin, sections and H&E stained using modified Swiss roll technique. Histological Score evaluation was performed based on: inflammatory cells infiltration and tissue damage, in four compartments of the large intestine graded from 0 to 3.
For tissue damage, discrete lymphoepithelial lesions were scored as 1, mucosal erosions as 2, and extensive mucosal damage and/or extension through deeper structures of the bowel wall as 3. The length of ulceration was measured in mm. The two equally weighted subscores (cell infiltration and tissue damage) at each compartment of the intestine were added as a colitis severity score. Ordinary one-way ANOVA statistical analysis was performed.

## COC(=O)c1ccc(COc2c(C=C3C(=O)NC(=O)NC3=O)cccc2C(C)(C)C)cc1 [Formula 2, methyl 4-((2-(tert-butyl)-6-((2,4,6-trioxotetrahydropyrimidin-5(2H)-ylidene)methyl)phenoxy)methyl) benzoate]
30 mg/kg PO qd
  Disease Activity Index (DAI) score, PO treated mice: maximal effect
All treated groups vs control groups
  colon length, amount by which control groups were shorter than treated groups: approximately 2 cm
All treated groups: 15 mg/kg IV, IP or SC q3w, 30 mg/kg PO qd, 10 days
  Disease Activity Index (DAI) score: significantly decreased
Treated groups vs control groups
  Weight loss score: significantly lower
Treated groups vs control mice
  stool formation that readily becomes paste on the anus: not detected
Treated vs control mice
  Histological score of large intestine: significantly lower
